Values of other authors in patent publication US20250011247A1, “GYPSUM HARDENED PRODUCT” (KAO CORPORATION, priority 2022, published 2025).

Conditions: 1-octanol/water; measured value if any, otherwise C log P calculated by C LOG P v 4.01

CCCCC=O [pentanal]
log P: 1.31
